From PubChem BioAssay (NCI)
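Results reflect a 48-hour exposure of cells in 96-well plates to compound at five concentrations. GI50: concentration for 50% inhibition of growth. TGI denotes the concentration required for complete inhibition of growth.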

Columns and labels:
Experiment in all cases: growth of human tumour cells (NCI), 48 h
[1] = test system: 786-0 renal
[2] = test system: A498 renal
[3] = test system: A549 NSCLC
[4] = test system: ACHN renal
[5] = test system: BT-549 breast
[6] = test system: CAKI-1 renal
[7] = test system: CCRF-CEM leukemia
[8] = test system: COLO 205 colon
[9] = test system: DU-145 prostate
[10] = test system: EKVX NSCLC
[11] = test system: HCC-2998 colon
[12] = test system: HCT-116 colon
[13] = test system: HCT-15 colon
[14] = test system: HL-60(TB) leukemia
[15] = test system: HOP-62 NSCLC
[16] = test system: HOP-92 NSCLC
[17] = test system: HS 578T breast
[18] = test system: HT29 colon
[19] = test system: IGROV1 ovarian
[20] = test system: K-562 leukemia
[21] = test system: KM12 colon
[22] = test system: LOX IMVI melanoma
[23] = test system: M14 melanoma
[24] = test system: MALME-3M melanoma
[25] = test system: MCF7 breast
[26] = test system: MDA-MB-231 breast
[27] = test system: MDA-MB-435
[28] = test system: MOLT-4 leukemia
[29] = test system: NCI-H226 lung
[30] = test system: NCI-H23 lung
[31] = test system: NCI-H460 lung
[32] = test system: NCI-H522 lung
[33] = test system: NCI/ADR-RES ovarian
[34] = test system: OVCAR-3 ovarian
[35] = test system: OVCAR-4 ovarian
[36] = test system: OVCAR-5 ovarian
[37] = test system: OVCAR-8 ovarian
[38] = test system: PC-3 prostate
[39] = test system: RPMI-8226 leukemia
[40] = test system: RXF 393 renal
[41] = test system: SF-268 CNS
[42] = test system: SF-295 CNS
[43] = test system: SF-539 CNS
[44] = test system: SK-MEL-2 melanoma
[45] = test system: SK-MEL-28 melanoma
[46] = test system: SK-MEL-5 melanoma
[47] = test system: SK-OV-3 ovarian
[48] = test system: SN12C renal
[49] = test system: SNB-19 CNS
[50] = test system: SNB-75 CNS
[51] = test system: SR leukemia
[52] = test system: SW-620 colon
[53] = test system: T-47D breast
[54] = test system: TK-10 renal
[55] = test system: U251 CNS
[56] = test system: UACC-257 melanoma
[57] = test system: UACC-62 melanoma
[58] = test system: UO-31 renal

## CCSc1ccc2c(c1)N(CCCN1CCN(C)CC1)c1ccccc1S2
[1]
  GI50: 2.61 µM
  TGI: 7.6 µM
[2]
  GI50: 1.83 µM
  TGI: 10.2 µM
[3]
  GI50: 3.21 µM
  TGI: 10.5 µM
[4]
  GI50: 2.49 µM
  TGI: 6.83 µM
[5]
  GI50: 4.75 µM
  TGI: 18.9 µM
[6]
  GI50: 1.75 µM
  TGI: 4.19 µM
[7]
  GI50: 2.56 µM
  TGI: 7.1 µM
[8]
  GI50: 1.76 µM
  TGI: 3.37 µM
[9]
  GI50: 3.82 µM
  TGI: 14.2 µM
[10]
  GI50: 6.04 µM
  TGI: 22.6 µM
[11]
  GI50: 1.7 µM
  TGI: 3.28 µM
[12]
  GI50: 2.04 µM
  TGI: 4.4 µM
[13]
  GI50: 2.06 µM
  TGI: 4.98 µM
[14]
  GI50: 1.83 µM
  TGI: 4.61 µM
[15]
  GI50: 2.84 µM
  TGI: 8.15 µM
[16]
  GI50: 1.85 µM
  TGI: 7.06 µM
[17]
  GI50: 2 µM
  TGI: 5.56 µM
[18]
  GI50: 1.81 µM
  TGI: 3.44 µM
[19]
  GI50: 2.19 µM
  TGI: 5.41 µM
[20]
  GI50: 2.39 µM
  TGI: > 100 µM
[21]
  GI50: 1.87 µM
  TGI: 3.56 µM
[22]
  GI50: 1.67 µM
  TGI: 3.16 µM
[23]
  GI50: 1.88 µM
  TGI: 3.67 µM
[24]
  GI50: 1.58 µM
  TGI: 3.35 µM
[25]
  GI50: 1.79 µM
  TGI: 3.43 µM
[26]
  GI50: 2 µM
  TGI: 4.95 µM
[27]
  GI50: 1.72 µM
  TGI: 3.47 µM
[28]
  GI50: 2.64 µM
  TGI: 6.53 µM
[29]
  GI50: 7.17 µM
  TGI: 27.5 µM
[30]
  GI50: 6.58 µM
  TGI: 21.3 µM
[31]
  GI50: 1.87 µM
  TGI: 3.53 µM
[32]
  GI50: 1.7 µM
  TGI: 3.5 µM
[33]
  GI50: 3.68 µM
  TGI: 16.8 µM
[34]
  GI50: 2.48 µM
  TGI: 7.12 µM
[35]
  GI50: 3.63 µM
  TGI: 12.3 µM
[36]
  GI50: 2.19 µM
  TGI: 6.44 µM
[37]
  GI50: 4.39 µM
  TGI: 10.9 µM
[38]
  GI50: 2.74 µM
  TGI: 9.64 µM
[39]
  GI50: 2.46 µM
  TGI: 6.96 µM
[40]
  GI50: 2.82 µM
  TGI: 8.88 µM
[41]
  GI50: 3.96 µM
  TGI: 16.9 µM
[42]
  GI50: 2.2 µM
  TGI: 5.97 µM
[43]
  GI50: 1.83 µM
  TGI: 3.76 µM
[44]
  GI50: 3.25 µM
  TGI: 8.49 µM
[45]
  GI50: 1.73 µM
  TGI: 3.27 µM
[46]
  GI50: 1.73 µM
  TGI: 3.16 µM
[47]
  GI50: 10.4 µM
  TGI: 24 µM
[48]
  GI50: 4.54 µM
  TGI: 18.4 µM
[49]
  GI50: 3.16 µM
  TGI: 12 µM
[50]
  GI50: 1.79 µM
  TGI: 5.5 µM
[51]
  GI50: 2.71 µM
  TGI: 8.65 µM
[52]
  GI50: 1.88 µM
  TGI: 3.65 µM
[53]
  GI50: 2.17 µM
  TGI: 5.79 µM
[54]
  GI50: 1.73 µM
  TGI: 3.27 µM
[55]
  GI50: 2.05 µM
  TGI: 4.64 µM
[56]
  GI50: 1.81 µM
  TGI: 3.48 µM
[57]
  GI50: 1.67 µM
  TGI: 3.34 µM
[58]
  GI50: 2.1 µM
  TGI: 10.1 µM
